Laboratory results reported in PMC5223195, “Novel long-chain compounds with both immunomodulatory and MenA inhibitory activities against Staphylococcus aureus and its biofilm” (Scientific Reports, 2017).
Values after ≈ are worked out from the molar mass of the structure shown. Read-outs that look alike come from different tables or passages of the source.

Assays:
MRSA USA100 = assay: MIC against MRSA USA100; type: cell-based, Staphylococcus aureus; details: Staphylococcus aureus, read-out: MIC, Staphylococcus aureus isolate USA100
Experimental: (§1) 96-well plates were seeded with 5 × 10^5 CFU/mL in a volume of 100 μL of tryptic soy broth (TSB) per well for Staphylococcus aureus assays. Compounds were dissolved in DMSO and serially diluted as 1:2 dilutions to give the final concentration ranging from 0.25 to 128 μg/mL per well. […] Plates were incubated at 37 °C for 18–20 hours and MIC was determined by reading OD625. For M.avium and M.abscessus, 7H9 broth media was used for determination of MICs. The final concentration was 5 × 10^5 CFU/mL in each well. The plate was incubated at 37 °C for 7–8 days and MICs were determined using a Tecan microplate reader (OD625) and resazurin reduction assay.

MRSA USA200 = assay: MIC against MRSA USA200; type: cell-based, Staphylococcus aureus; details: for MIC: Staphylococcus aureus, read-out: MIC, Staphylococcus aureus isolate USA200
Experimental: as §1

MRSA USA300 = assay: MIC against MRSA USA300; type: cell-based, Staphylococcus aureus; details: Staphylococcus aureus, read-out: MIC, Staphylococcus aureus isolate USA300
Experimental: as §1

MRSA USA400 = assay: MIC against MRSA USA400; type: cell-based, Staphylococcus aureus; details: Staphylococcus aureus, read-out: MIC, Staphylococcus aureus isolate USA400
Experimental: as §1

MRSA USA700 = assay: MIC against MRSA USA700; type: cell-based, Staphylococcus aureus; details: for MIC: Staphylococcus aureus, read-out: MIC, Staphylococcus aureus isolate USA700
Experimental: as §1

Enterococcus faecalis = assay: MIC against Enterococcus faecalis; type: cell-based; details: read-out: MIC, EF
MRSA USA800 = assay: MIC against MRSA USA800; type: cell-based, Staphylococcus aureus; details: Staphylococcus aureus; TSB, 37 °C, 18–20 hours; read-out: MIC, Staphylococcus aureus isolate USA800
Experimental: as §1

[1] = system: Methicillin susceptible Staphylococcus aureus; assay: MIC against MSSA; type: cell-based; details: MSSA
Experimental: as §1

MRSA USA500 = assay: MIC against MRSA USA500; type: cell-based, Staphylococcus aureus; details: Staphylococcus aureus; TSB, 37 °C, 18–20 hours; read-out: MIC, Staphylococcus aureus isolate USA500
Experimental: as §1

Pseudomonas aeruginosa = assay: MIC against Pseudomonas aeruginosa; type: cell-based; details: read-out: MIC, PA
MRSA (USA700) biofilms = assay: S. aureus biofilm assay; type: cell-based, Staphylococcus aureus
Experimental: Biofilm assays were performed using a method previously described with modification. A 96 well plate was precoated with 20% human plasma (Sigma) in 0.05 M carbonate buffer, pH 9.6 at 4 °C for 24 h. MRSA was cultured overnight in TSB containing 3% NaCl and 0.5% glucose. The overnight culture was diluted with TSB/NaCl/Glucose media until OD600 reached 0.05. After carefully removing the liquid from the 96 well plate, 200 μL of MRSA dilution was added to each well in triplicate. The plate was incubated at 37 °C for 24 h and carefully washed with PBS twice. MH broth (200 μL) containing a compound was added to each well in triplicate and incubated at 37 °C for 24 h. After washing with PBS twice, the biofilm was scraped in 100 μL of PBS and serially diluted and plated on TSA to determine CFU.

MRSA (USA200) = assay: Colony morphology / small colony variant formation on TSA; type: cell-based, Staphylococcus aureus; details: USA200 on TSA, 37 °C, up to 96 h (3a 4–16 μg/mL), 72 h (7c, rifampin)
Experimental: MRSA was streaked and then incubated on tryptic soy agar (TSA) containing 0, 2, 4, 8 or 16 μg/mL of inhibitor 3a or 4 μg/mL of 7C or 0.025 μg/mL of rifampin at 37 °C for 96 h. MK-4 (100 μg/mL) was supplemented in TSA containing 8 μg/mL of 3a for the rescue experiment.

SMILES: Brc1ccc(CCNCCCCCCCCOc2ccc3cc(Br)ccc3c2)cc1 [5c]
- MIC (MRSA USA100; TSB, 37 °C, 18–20 hours): 32 µg/mL (≈ 60 µM)
- MIC (MRSA USA200; TSB, 37 °C, 18–20 hours): 8 µg/mL (≈ 15 µM)
- MIC (MRSA USA300; TSB, 37 °C, 18–20 hours): 32 µg/mL (≈ 60 µM)
- MIC (MRSA USA400; TSB, 37 °C, 18–20 hours): 16 µg/mL (≈ 30 µM)
- MIC (MRSA USA700; TSB, 37 °C, 18–20 hours): 32 µg/mL (≈ 60 µM)
- MIC (Enterococcus faecalis): 8 µg/mL (≈ 15 µM)

SMILES: Brc1ccc2cc(OCCCCCCCCN3CCCCC3)ccc2c1 [5d]
- MIC (MRSA USA100): 8 µg/mL (≈ 19.1 µM)
- MIC (MRSA USA400): 4 µg/mL (≈ 9.56 µM)
- MIC (MRSA USA700): 16 µg/mL (≈ 38.2 µM)

SMILES: C=CCN(C)CCCCCCCCOc1ccc2cc(Br)c(OCc3ccccc3)cc2c1 [6a]
- MIC (MRSA USA200; TSB, 37 °C, 18–20 hours): 8 µg/mL (≈ 15.7 µM)
- MIC (MRSA USA400; TSB, 37 °C, 18–20 hours): 8 µg/mL (≈ 15.7 µM)
- MIC (MRSA USA700; TSB, 37 °C, 18–20 hours): 16 µg/mL (≈ 31.3 µM)
- MIC (MRSA USA800): 64 µg/mL (≈ 125 µM)
- MIC [1]: 16 µg/mL (≈ 31.3 µM)
- MIC (Enterococcus faecalis): 4 µg/mL (≈ 7.84 µM)

SMILES: Fc1ccc(CCNCCCCCCCCOc2ccc3cc(Br)c(OCc4ccccc4)cc3c2)cc1 [6c]
- MIC (MRSA USA100; TSB, 37 °C, 18–20 hours): > 128 µg/mL
- MIC (MRSA USA400; TSB, 37 °C, 18–20 hours): > 128 µg/mL
- MIC (MRSA USA500): > 128 µg/mL
- MIC (MRSA USA700; TSB, 37 °C, 18–20 hours): > 128 µg/mL
- MIC (MRSA USA800): > 128 µg/mL
- MIC [1]: > 128 µg/mL

SMILES: Clc1ccc(CCNCCCCCCCCOc2ccc3cc(Br)c(OCc4ccccc4)cc3c2)cc1 [6d]
- MIC (MRSA USA300; TSB, 37 °C, 18–20 hours): > 128 µg/mL
- MIC (MRSA USA400; TSB, 37 °C, 18–20 hours): > 128 µg/mL
- MIC (MRSA USA700; TSB, 37 °C, 18–20 hours): 64 µg/mL (≈ 108 µM)
- MIC [1]: 64 µg/mL (≈ 108 µM)
- MIC (Enterococcus faecalis): 16 µg/mL (≈ 26.9 µM)

SMILES: Brc1ccc(CCNCCCCCCCCOc2ccc3cc(Br)c(OCc4ccccc4)cc3c2)cc1 [6e]
- MIC (MRSA USA200): 128 µg/mL (≈ 200 µM)
- MIC (MRSA USA300): > 128 µg/mL
- MIC (MRSA USA700): 128 µg/mL (≈ 200 µM)

SMILES: C=CCN(C)CCCOc1ccc2ccc(OCCCN(C)CC=C)cc2c1 [7a]
- MIC, Staphylococcus aureus isolate USA200 (MRSA USA200; TSB, 37 °C, 18–20 hours): >128 µg/mL
- MIC, Staphylococcus aureus isolate USA700 (MRSA USA700; TSB, 37 °C, 18–20 hours): 128 µg/mL (≈ 335 µM)

SMILES: c1cc2ccc(OCCCN3CCCCC3)cc2cc1OCCCN1CCCCC1 [7b]
- MIC (MRSA USA700): > 128 µg/mL

SMILES: Fc1ccc(N2CCN(CCCOc3ccc4ccc(OCCCN5CCN(c6ccc(F)cc6)CC5)cc4c3)CC2)cc1 [7d, 2,7-bis(3-(4-(4-fluorophenyl)piperazin-1-yl)propoxy)naphthalene]
- MIC (MRSA USA700): > 128 µg/mL

SMILES: CC(=O)NC[C@H]1CN(c2ccc(N3CCOCC3)c(F)c2)C(=O)O1 [Linezolid, reference compound]
- MIC (MRSA USA100; TSB, 37 °C, 18–20 hours): 0.5 µg/mL (≈ 1.48 µM)
- MIC (MRSA USA200; TSB, 37 °C, 18–20 hours): 1 µg/mL (≈ 2.96 µM)
- MIC (MRSA USA300; TSB, 37 °C, 18–20 hours): 1 µg/mL (≈ 2.96 µM)
- MIC (MRSA USA400; TSB, 37 °C, 18–20 hours): 1 µg/mL (≈ 2.96 µM)
- MIC (MRSA USA500): 0.5 µg/mL (≈ 1.48 µM)
- MIC (MRSA USA700; TSB, 37 °C, 18–20 hours): 1 µg/mL (≈ 2.96 µM)
- MIC (MRSA USA800): 0.5 µg/mL (≈ 1.48 µM)
- MIC [1]: 1 µg/mL (≈ 2.96 µM)
- MIC (Enterococcus faecalis): > 32 µg/mL
- MIC (Pseudomonas aeruginosa): 1 µg/mL (≈ 2.96 µM)

SMILES: CN(C)c1ccc(O)c2c1C[C@H]1C[C@H]3[C@H](N(C)C)C(O)=C(C(N)=O)C(=O)[C@@]3(O)C(O)=C1C2=O [Minomycin, Minocycline, reference compound]
- MIC (MRSA USA400; TSB, 37 °C, 18–20 hours): 0.5 µg/mL (≈ 1.09 µM)
- MIC (MRSA USA500): < 0.06 µg/mL
- MIC, Staphylococcus aureus isolate USA700 (MRSA USA700; TSB, 37 °C, 18–20 hours): < 0.06 µg/mL
- MIC (Enterococcus faecalis): 16 µg/mL (≈ 35 µM)
- MRSA biofilm growth compared to the positive control (MRSA (USA700) biofilms; USA700 biofilm, 0.5 and 0.03 mg/mL, 24 h): significant decrease
- fold reduction of MRSA biofilm compared to the positive control (MRSA (USA700) biofilms; USA 700 biofilm, 8300 × MIC): 10^6 fold

SMILES: CO[C@H]1/C=C/O[C@@]2(C)Oc3c(C)c(O)c4c(O)c(c(/C=N/N5CCN(C)CC5)c(O)c4c3C2=O)NC(=O)/C(C)=C\C=C\[C@H](C)[C@H](O)[C@@H](C)[C@@H](O)[C@@H](C)[C@H](OC(C)=O)[C@@H]1C [rifampin, reference compound]
- induction of small colony variants (SCV) (MRSA (USA200)): showed growth of SCV
